From patent US11174252B2, “Heterocyclic compounds as kinase inhibitors” (priority 2018, dated 2021)
Where two headings read alike, the source gives them in different places.

Assays:
PI3Kδ kinase = PI3Kδ kinase (Homo sapiens (Human), UniProt O00329); assay: PI3Kδ kinase ADP-Glo assay (Reaction Biology Corporation)
FMS kinase = FMS kinase (Homo sapiens (Human), UniProt P07333); assay: LanthaScreen kinase assay (ATP, fluorescent-PolyGT substrate, TR-FRET); format: biochemical
DU4475 = assay: Cancer cell proliferation assay, single agent; format: cell-based; details: Homo sapiens
MCF-7 = assay: Cancer cell proliferation assay, single agent; format: cell-based; details: Homo sapiens
CDK6 = CDK6 (Homo sapiens (Human), UniProt Q00534); assay: biochemical; format: biochemical
CDK4 = CDK4 (Homo sapiens (Human), UniProt P11802); assay: In vitro kinase inhibition, luminescence (ADP-Glo) with retinoblastoma substrate; format: biochemical
[1] = DU-4475, DU4475 cells, treated for 24-168 hours, read-out: IC50 (nM) DU4475
[2] = MCF7, MCF-7 cells, treated for 24-168 hours, read-out: IC50 (nM) MCF-7
[3] = DU-4475, read-out: IC50 (nM) DU4475
[4] = MCF7, read-out: IC50 (nM) MCF-7

PI3Kδ kinase, sequence (O00329 whole entry): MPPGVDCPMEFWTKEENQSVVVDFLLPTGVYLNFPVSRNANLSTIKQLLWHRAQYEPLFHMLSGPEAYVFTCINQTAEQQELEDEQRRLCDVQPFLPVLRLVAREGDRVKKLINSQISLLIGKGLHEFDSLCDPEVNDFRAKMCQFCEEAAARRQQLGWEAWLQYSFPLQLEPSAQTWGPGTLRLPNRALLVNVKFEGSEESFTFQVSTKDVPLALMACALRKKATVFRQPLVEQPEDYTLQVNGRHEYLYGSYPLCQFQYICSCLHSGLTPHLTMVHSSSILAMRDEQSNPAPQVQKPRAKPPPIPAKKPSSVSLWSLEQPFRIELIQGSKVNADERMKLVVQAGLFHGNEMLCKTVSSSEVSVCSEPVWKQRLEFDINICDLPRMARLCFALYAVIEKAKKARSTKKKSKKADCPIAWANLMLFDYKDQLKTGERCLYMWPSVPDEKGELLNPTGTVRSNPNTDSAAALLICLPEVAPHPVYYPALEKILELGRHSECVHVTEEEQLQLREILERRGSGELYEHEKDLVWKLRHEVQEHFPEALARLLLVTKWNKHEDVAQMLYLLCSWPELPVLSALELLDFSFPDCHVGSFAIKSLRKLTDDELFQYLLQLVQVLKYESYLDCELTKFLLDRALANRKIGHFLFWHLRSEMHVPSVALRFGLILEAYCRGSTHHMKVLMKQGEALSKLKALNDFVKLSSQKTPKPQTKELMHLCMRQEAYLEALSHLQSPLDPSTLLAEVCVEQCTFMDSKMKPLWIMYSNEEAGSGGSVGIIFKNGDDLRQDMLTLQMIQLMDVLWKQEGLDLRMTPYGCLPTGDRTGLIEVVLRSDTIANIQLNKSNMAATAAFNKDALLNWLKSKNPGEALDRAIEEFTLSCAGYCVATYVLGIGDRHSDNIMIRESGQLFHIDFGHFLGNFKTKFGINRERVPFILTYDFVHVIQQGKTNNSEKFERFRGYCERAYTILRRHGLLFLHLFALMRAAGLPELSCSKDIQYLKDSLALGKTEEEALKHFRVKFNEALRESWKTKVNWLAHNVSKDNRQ
PI3Kδ kinase, sequence (P27986 whole entry partner): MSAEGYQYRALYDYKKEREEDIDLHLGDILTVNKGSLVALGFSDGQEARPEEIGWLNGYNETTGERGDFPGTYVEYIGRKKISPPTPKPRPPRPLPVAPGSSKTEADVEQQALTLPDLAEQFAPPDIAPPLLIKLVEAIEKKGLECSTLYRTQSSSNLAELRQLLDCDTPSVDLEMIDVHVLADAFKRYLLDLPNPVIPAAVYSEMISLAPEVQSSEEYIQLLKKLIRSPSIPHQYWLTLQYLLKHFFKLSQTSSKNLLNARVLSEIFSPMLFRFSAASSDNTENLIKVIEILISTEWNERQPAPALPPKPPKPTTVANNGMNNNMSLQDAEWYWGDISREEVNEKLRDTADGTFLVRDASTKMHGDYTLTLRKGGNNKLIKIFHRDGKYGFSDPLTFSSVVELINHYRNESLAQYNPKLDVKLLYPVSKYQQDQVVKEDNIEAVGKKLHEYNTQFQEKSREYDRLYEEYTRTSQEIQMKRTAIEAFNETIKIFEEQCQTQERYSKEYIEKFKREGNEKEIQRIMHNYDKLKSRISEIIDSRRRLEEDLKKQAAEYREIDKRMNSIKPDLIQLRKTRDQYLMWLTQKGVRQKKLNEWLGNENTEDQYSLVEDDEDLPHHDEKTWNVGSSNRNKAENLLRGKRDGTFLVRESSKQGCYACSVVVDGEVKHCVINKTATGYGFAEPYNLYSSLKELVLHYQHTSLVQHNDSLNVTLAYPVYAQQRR
FMS kinase, sequence (P07333 20-972): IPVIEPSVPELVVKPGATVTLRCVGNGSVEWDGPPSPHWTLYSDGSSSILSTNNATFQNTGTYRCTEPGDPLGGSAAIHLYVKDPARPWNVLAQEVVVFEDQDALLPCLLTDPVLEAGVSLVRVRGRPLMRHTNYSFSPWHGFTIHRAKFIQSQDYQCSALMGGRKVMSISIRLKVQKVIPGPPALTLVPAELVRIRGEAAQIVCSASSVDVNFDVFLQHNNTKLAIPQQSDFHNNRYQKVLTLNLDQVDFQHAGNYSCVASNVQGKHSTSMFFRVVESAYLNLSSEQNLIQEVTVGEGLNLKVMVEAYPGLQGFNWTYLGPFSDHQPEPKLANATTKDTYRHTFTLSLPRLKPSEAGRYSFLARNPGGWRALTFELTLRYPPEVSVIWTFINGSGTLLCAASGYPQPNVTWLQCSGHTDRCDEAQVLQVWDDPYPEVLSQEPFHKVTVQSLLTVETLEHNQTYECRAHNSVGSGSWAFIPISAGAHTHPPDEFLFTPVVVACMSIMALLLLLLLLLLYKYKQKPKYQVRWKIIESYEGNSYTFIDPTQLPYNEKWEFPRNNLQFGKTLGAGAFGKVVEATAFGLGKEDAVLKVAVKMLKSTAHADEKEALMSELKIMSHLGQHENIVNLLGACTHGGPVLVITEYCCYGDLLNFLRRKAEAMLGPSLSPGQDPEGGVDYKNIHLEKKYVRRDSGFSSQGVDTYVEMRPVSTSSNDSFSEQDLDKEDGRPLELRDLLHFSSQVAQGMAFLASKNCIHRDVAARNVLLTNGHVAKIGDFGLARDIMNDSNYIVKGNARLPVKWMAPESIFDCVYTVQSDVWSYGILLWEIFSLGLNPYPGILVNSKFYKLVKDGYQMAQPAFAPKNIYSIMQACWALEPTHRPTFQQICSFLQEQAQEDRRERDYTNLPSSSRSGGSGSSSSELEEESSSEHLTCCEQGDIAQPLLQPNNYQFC
CDK4, sequence (P11802 whole entry): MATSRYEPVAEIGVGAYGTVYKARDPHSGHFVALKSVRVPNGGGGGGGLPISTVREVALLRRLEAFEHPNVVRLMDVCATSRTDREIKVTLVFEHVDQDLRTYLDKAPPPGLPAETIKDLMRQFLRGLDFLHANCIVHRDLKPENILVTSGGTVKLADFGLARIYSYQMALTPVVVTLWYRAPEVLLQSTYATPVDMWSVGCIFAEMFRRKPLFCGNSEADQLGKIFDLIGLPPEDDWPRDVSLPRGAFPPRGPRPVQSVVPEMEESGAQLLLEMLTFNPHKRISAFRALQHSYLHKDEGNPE
CDK4, sequence (P24385 whole entry partner): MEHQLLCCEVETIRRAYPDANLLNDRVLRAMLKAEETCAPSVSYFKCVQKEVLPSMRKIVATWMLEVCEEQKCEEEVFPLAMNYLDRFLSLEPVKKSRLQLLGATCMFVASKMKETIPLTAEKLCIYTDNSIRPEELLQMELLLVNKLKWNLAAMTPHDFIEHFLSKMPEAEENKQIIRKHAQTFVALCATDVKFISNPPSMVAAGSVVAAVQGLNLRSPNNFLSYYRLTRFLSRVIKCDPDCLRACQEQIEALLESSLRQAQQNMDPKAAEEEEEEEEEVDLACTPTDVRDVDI

| Compound | IC50 (PI3Kδ kinase; read-out: PI3Kδ IC50) [nM] | IC50 (FMS kinase) [nM] | IC50 (DU4475; [1]) [nM] | IC50 (MCF-7; [2]) [nM] | IC50 (CDK6) [nM] | IC50 (CDK4) [nM] | IC50 (DU4475; [3]) [nM] | IC50 (MCF-7; [4]) [nM] | IC50 (PI3Kδ kinase) [nM] |
| --- | --- | --- | --- | --- | --- | --- | --- | --- | --- |
| CC(C)N1CCOc2c(F)cc(-c3nc(Nc4ccc(N5CCC(C)(O)CC5)cn4)ncc3F)cc21 [Compound 484, 1-(6-((5-fluoro-4-(8-fluoro-4-isopropyl-3,4-dihydro-2H-benzo[b][1,4]oxazin-6-yl)pyrimidin-2-yl)amino)pyridin-3-yl)-4-methylpiperidin-4-ol] | > 50000 | > 5000 | 2480 | 1340 |  |  |  |  |  |
| CC(=O)N1CCN(c2ccc(Nc3ncc(F)c(-c4cc(F)c5c(c4)N(C(C)C)CCO5)n3)nc2)CC1 [Compound 474, 1-(4-(6-((5-fluoro-4-(8-fluoro-4-isopropyl-3,4-dihydro-2H-benzo[b][1,4]oxazin-6-yl)pyrimidin-2-yl)amino)pyridin-3-yl)piperazin-1-yl)ethan-1-one] | 1160 | 776 | 940 | 300 |  |  |  |  |  |
| CC(C)CN1CCOc2c(F)cc(-c3nc(Nc4ccc(N5CCC(O)CC5)cn4)ncc3F)cc21 [Compound 488, 1-(6-((5-fluoro-4-(8-fluoro-4-isobutyl-3,4-dihydro-2H-benzo[b][1,4]oxazin-6-yl)pyrimidin-2-yl)amino)pyridin-3-yl)piperidin-4-ol] | > 50000 | > 5000 |  |  | 200 | 101 | 2560 | 830 |  |
| OC1CCN(c2ccc(Nc3ncc(F)c(-c4cc(F)c5c(c4)N(C4CCC4)CCO5)n3)nc2)CC1 [Compound 486, 1-(6-((4-(4-cyclobutyl-8-fluoro-3,4-dihydro-2H-benzo[b][1,4]oxazin-6-yl)-5-fluoropyrimidin-2-yl)amino)pyridin-3-yl)piperidin-4-ol] | > 50000 | > 5000 |  |  | 41 | 16 | 1450 | 325 |  |
| CC(C)CN1CCOc2c(F)cc(-c3nc(Nc4ccc(N5CCC(N(C)C)CC5)c(F)c4)ncc3F)cc21 [Compound 480, N-(4-(4-(dimethylamino)piperidin-1-yl)-3-fluorophenyl)-5-fluoro-4-(8-fluoro-4-isobutyl-3,4-dihydro-2H-benzo[b][1,4]oxazin-6-yl)pyrimidin-2-amine] | 1160 | 82 |  |  | 14 | 5.5 | 435 | 190 |  |
| CC(C)N1CCOc2c(F)cc(-c3nc(Nc4ccc(N5CCC(CCO)CC5)cn4)ncc3F)cc21 [Compound 491, 2-(1-(6-((5-fluoro-4-(8-fluoro-4-isopropyl-3,4-dihydro-2H-benzo[b][1,4]oxazin-6-yl)pyrimidin-2-yl)amino)pyridin-3-yl)piperidin-4-yl)ethan-1-ol] | > 50000 | 4590 | 450 | 465 |  |  |  |  |  |
| CC(C)N1CCOc2c(F)cc(-c3nc(Nc4ccc(N5CCC(CO)CC5)cn4)ncc3F)cc21 [Compound 485, (1-(6-((5-fluoro-4-(8-fluoro-4-isopropyl-3,4-dihydro-2H-benzo[b][1,4]oxazin-6-yl)pyrimidin-2-yl)amino)pyridin-3-yl)piperidin-4-yl)methanol] | > 50000 | 3250 | 555 | 470 |  |  |  |  |  |
| CC(C)CN1CCOc2c(F)cc(-c3nc(Nc4ccc(C5CCN(C)CC5)c(F)c4)ncc3F)cc21 [Compound 476, 5-fluoro-N-(3-fluoro-4-(1-methylpiperidin-4-yl)phenyl)-4-(8-fluoro-4-isobutyl-3,4-dihydro-2H-benzo[b][1,4]oxazin-6-yl)pyrimidin-2-amine] | 703 | 174 |  | 65 | 25 | 4 | 135 |  |  |
| CC(C)N1CCOc2c(F)cc(-c3nc(Nc4ccc(N5CCN(C)CC5=O)cn4)ncc3F)cc21 [Compound 472, 1-(6-((5-fluoro-4-(8-fluoro-4-isopropyl-3,4-dihydro-2H-benzo[b][1,4]oxazin-6-yl)pyrimidin-2-yl)amino)pyridin-3-yl)-4-methylpiperazin-2-one] |  |  |  |  |  | 2.5 | 570 | 30 | 29100 |
| CC(C)CN1CCOc2c(F)cc(-c3nc(Nc4ccc(N5CCOCC5)cn4)ncc3F)cc21 [Compound 489, 5-fluoro-4-(8-fluoro-4-isobutyl-3,4-dihydro-2H-benzo[b][1,4]oxazin-6-yl)-N-(5-morpholinopyridin-2-yl)pyrimidin-2-amine] | > 50000 | > 5000 |  | 1820 | 159 | 90 | 4500 |  |  |
| CC(C)N1CCOc2c(F)cc(-c3nc(Nc4ccc(N5CCS(=O)(=O)CC5)c(F)c4)ncc3F)cc21 [Compound 465, 4-(2-fluoro-4-((5-fluoro-4-(8-fluoro-4-isopropyl-3,4-dihydro-2H-benzo[b][1,4]oxazin-6-yl)pyrimidin-2-yl)amino)phenyl)thiomorpholine 1,1-dioxide] | 397 | 66 |  | 80 | 123 | 37 |  |  |  |
| CC(C)N1CCOc2c(F)cc(-c3nc(Nc4ccc(N5CCC(O)CC5)c(F)c4)ncc3F)cc21 [Compound 445, 1-(2-fluoro-4-((5-fluoro-4-(8-fluoro-4-isopropyl-3,4-dihydro-2H-benzo[b][1,4]oxazin-6-yl)pyrimidin-2-yl)amino)phenyl)piperidin-4-ol] | > 50000 | 69 |  | 120 | 69 | 31 |  |  |  |
| CN1CCC(c2ccc(Nc3ncc(F)c(-c4cc(F)c5c(c4)N(C)CCO5)n3)cc2F)CC1 [Compound 466, 5-fluoro-N-(3-fluoro-4-(1-methylpiperidin-4-yl)phenyl)-4-(8-fluoro-4-methyl-3,4-dihydro-2H-benzo[b][1,4]oxazin-6-yl)pyrimidin-2-amine] | 1110 | 35 |  | 105 | 10 | 4 |  |  |  |
| CC(C)N1CCOc2c(F)cc(-c3nc(Nc4ccc(N5CCN6CCCC6C5)c(F)c4)ncc3F)cc21 (stereo not shown) [Compound 473, 5-fluoro-N-(3-fluoro-4-(hexahydropyrrolo[1,2-a]pyrazin-2(1H)-yl)phenyl)-4-(8-fluoro-4-isopropyl-3,4-dihydro-2H-benzo[b][1,4]oxazin-6-yl)pyrimidin-2-amine] | 3170 | 7 | 55 | 30 |  |  |  |  |  |
| CC(C)N1CCOc2c(F)cc(-c3nc(Nc4cnn(C5CCC(O)CC5)c4)ncc3F)cc21 (stereo not shown) [Compound 452, 4-(4-((5-fluoro-4-(8-fluoro-4-isopropyl-3,4-dihydro-2H-benzo[b][1,4]oxazin-6-yl)pyrimidin-2-yl)amino)-1H-pyrazol-1-yl)cyclohexan-1-ol] | 589 | 8 |  | 50 | 45 | 20 |  |  |  |
| CC(C)N1CCOc2c(F)cc(-c3nc(Nc4ccc(N5CCN(C(=O)CN(C)C)CC5)cc4)ncc3F)cc21 [Compound 440, 2-(dimethylamino)-1-(4-(4-((5-fluoro-4-(8-fluoro-4-isopropyl-3,4-dihydro-2H-benzo[b][1,4]oxazin-6-yl)pyrimidin-2-yl)amino)phenyl)piperazin-1-yl)ethan-1-one] | 35000 | 24 |  | 30 | 2 | 2 |  |  |  |
| CN1CCOc2c(F)cc(-c3nc(Nc4ccc(N5CCC(N(C)C)CC5)c(F)c4)ncc3F)cc21 [Compound 467, N-(4-(4-(dimethylamino)piperidin-1-yl)-3-fluorophenyl)-5-fluoro-4-(8-fluoro-4-methyl-3,4-dihydro-2H-benzo[b][1,4]oxazin-6-yl)pyrimidin-2-amine] | 2430 | 14 |  | 185 | 5 | 4 |  |  |  |
| CC(C)N1CCOc2c(F)cc(-c3nc(Nc4cc(F)c(C5CCNCC5)cn4)ncc3F)cc21 [Compound 443, 5-fluoro-4-(8-fluoro-4-isopropyl-3,4-dihydro-2H-benzo[b][1,4]oxazin-6-yl)-N-(4-fluoro-5-(piperidin-4-yl)pyridin-2-yl)pyrimidin-2-amine] | > 50000 | 950 |  | 285 | 3 | 3 |  |  |  |
| CC(C)N1CCOc2c(F)cc(-c3nc(Nc4ccc(N5CCN(CCO)CC5)cn4)ncc3F)cc21 [Compound 490, 2-(4-(6-((5-fluoro-4-(8-fluoro-4-isopropyl-3,4-dihydro-2H-benzo[b][1,4]oxazin-6-yl)pyrimidin-2-yl)amino)pyridin-3-yl)piperazin-1-yl)ethan-1-ol] | > 50000 | 2120 |  | 80 |  |  | 420 |  |  |
| CCCN1CCOc2c(F)cc(-c3nc(Nc4ccc(N5CCC(N(C)C)CC5)c(F)c4)ncc3F)cc21 [Compound 468, N-(4-(4-(dimethylamino)piperidin-1-yl)-3-fluorophenyl)-5-fluoro-4-(8-fluoro-4-propyl-3,4-dihydro-2H-benzo[b][1,4]oxazin-6-yl)pyrimidin-2-amine] | 3780 | 36 |  | 95 | 8 | 8 |  |  |  |
| CC(C)N1CCOc2c(F)cc(-c3nc(Nc4ccc(C5CCN(C(=O)N(C)C)CC5)cn4)ncc3F)cc21 [Compound 454, 4-(6-((5-fluoro-4-(8-fluoro-4-isopropyl-3,4-dihydro-2H-benzo[b][1,4]oxazin-6-yl)pyrimidin-2-yl)amino)pyridin-3-yl)-N,N-dimethylpiperidine-1-carboxamide] | > 50000 | > 5000 |  | 920 | 83 | 18 |  |  |  |
